Measured values published in paper PMC7556269, “Metabolic Profiling of a CB2 Agonist, AM9338, Using LC-MS and Microcoil-NMR: Identification of a Novel Dihydroxy Adamantyl Metabolite” (Frontiers in Pharmacology, 2020).
Where two headings read alike, the source gives them in different places.

Legend:
[1] = Microsomal stability, rat liver microsomes; format: in vitro ADME; parameters: microsomal CLint / half-life: dose or concentration left out as unconfirmed; details: for CLint scaled: read-out: CLint (ml/min/kg) (Mean ± S.D.); for half-life: rat, liver microsomes, pH 7.4, rat liver microsomes, read-out: t1/2 (min) (Mean ± S.D.)
Method: (§1) AM9338 (50 µM) was incubated at 37 °C with mouse, rat or human microsomes (0.5 mg/ml) in 50 mM potassium phosphate buffer, pH 7.4. Samples were taken immediately after the addition of NADPH (final concentration 1 mM) and again after 30 and 60 min of incubation; the reaction was terminated through protein precipitation with ice cold methanol followed by centrifugation at 4000 g for 10 min. The resulting supernatant was analyzed using LC-MS/MS.
(§2) Chromatographic separation of AM9338 and its metabolites was achieved using a Phenomenex Kinetex F5 column (4.6 × 150 mm, 100 Å pore size, 2.6 μm particle size) on a Thermo Accela HPLC (Thermo, San Jose, CA, USA) coupled to an API-4000 Q-Trap (AB Sciex, Concord, Ontario, Canada). Samples were eluted with mobile phases consisting of 0.1 % formic acid in acetonitrile (A) and 0.1 % formic acid in HPLC grade water (B) starting at 10% A for 2.6 min, ramping to 90%A over the next 9.4 min, and holding at 90%A for 2.8 min before returning to initial conditions for a total run time of 18.5 min; the flow rate was 0.8 ml/min and the autosampler and column oven were set to 4°C and 35°C, respectively. The mass spectrometer was operated in electrospray ionization (ESI) positive ion mode with the following conditions: ion spray voltage = 5,500 V; heater temperature = 550 °C; curtain gas = 20 psi; Q2 collision gas = set as high; source gas 1 (GS1) = 50 psi; source gas 2 (GS2) = 55 psi. High purity nitrogen was used as a source and collision gas and the compounds were detected in the multiple reaction monitoring (MRM) mode.
(§3) The susceptibility of AM9338 to CYP enzymes or hydrolytic enzymes was tested at 37°C in human, mouse and rat liver microsomes, in the presence or absence of NADPH. […] The disappearance of AM9338 in microsomes followed a first-order elimination kinetics with low elimination half-life (t1/2 < 4 min) and high intrinsic microsomal clearance of microsomal protein across all three species as shown in Table 1 .

hCB2 = hCB2 (Homo sapiens, UniProt P34972); assay: CB2 receptor binding affinity (hCB2); details: stated in introduction, no method or reference given
Chain of hCB2 (P34972 whole entry): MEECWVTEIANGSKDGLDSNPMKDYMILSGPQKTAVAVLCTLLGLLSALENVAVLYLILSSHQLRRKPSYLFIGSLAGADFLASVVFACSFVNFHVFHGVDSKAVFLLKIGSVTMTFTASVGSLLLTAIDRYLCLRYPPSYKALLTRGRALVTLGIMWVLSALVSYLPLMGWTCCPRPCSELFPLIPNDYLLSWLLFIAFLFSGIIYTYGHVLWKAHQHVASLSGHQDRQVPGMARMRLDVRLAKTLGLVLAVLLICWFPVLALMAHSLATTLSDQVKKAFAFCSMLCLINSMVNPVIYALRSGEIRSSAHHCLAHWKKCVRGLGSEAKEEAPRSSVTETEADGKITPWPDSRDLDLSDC

[2] = Non-compartmental pharmacokinetics in mice after i.v. and oral dosing; format: in vivo; details: for bioavailability: oral 8 mg/kg vs I.V. 2 mg/kg
Method: The non-compartmental pharmacokinetic parameters following intravenous (2 mg/kg, i.v.) and oral (8 mg/kg, p.o.) dosing are presented in Table 2 .

CYP3A4 = CYP3A4 (Homo sapiens, UniProt P08684); assay: CYP phenotyping using CYP specific chemical inhibitors; format: in vitro ADME; details: preliminary
Chain of CYP3A4 (P08684 whole entry): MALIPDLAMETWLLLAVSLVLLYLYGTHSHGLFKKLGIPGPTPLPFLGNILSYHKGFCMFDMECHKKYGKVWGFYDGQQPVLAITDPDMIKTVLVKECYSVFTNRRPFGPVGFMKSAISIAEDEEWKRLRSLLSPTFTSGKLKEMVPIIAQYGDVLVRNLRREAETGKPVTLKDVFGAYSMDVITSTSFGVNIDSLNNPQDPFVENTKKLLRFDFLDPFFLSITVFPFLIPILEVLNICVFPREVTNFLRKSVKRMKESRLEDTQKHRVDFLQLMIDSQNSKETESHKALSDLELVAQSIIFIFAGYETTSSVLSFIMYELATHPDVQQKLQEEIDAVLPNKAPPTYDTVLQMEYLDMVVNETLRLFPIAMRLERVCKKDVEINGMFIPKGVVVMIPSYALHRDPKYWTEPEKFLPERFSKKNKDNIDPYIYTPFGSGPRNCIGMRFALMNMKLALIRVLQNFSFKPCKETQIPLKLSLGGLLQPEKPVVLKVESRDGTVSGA

mCB2 = mCB2 (Mus musculus, UniProt P47936); assay: CB2 receptor binding affinity (mCB2); details: stated in introduction, no method or reference given
Chain of mCB2 (P47936 whole entry): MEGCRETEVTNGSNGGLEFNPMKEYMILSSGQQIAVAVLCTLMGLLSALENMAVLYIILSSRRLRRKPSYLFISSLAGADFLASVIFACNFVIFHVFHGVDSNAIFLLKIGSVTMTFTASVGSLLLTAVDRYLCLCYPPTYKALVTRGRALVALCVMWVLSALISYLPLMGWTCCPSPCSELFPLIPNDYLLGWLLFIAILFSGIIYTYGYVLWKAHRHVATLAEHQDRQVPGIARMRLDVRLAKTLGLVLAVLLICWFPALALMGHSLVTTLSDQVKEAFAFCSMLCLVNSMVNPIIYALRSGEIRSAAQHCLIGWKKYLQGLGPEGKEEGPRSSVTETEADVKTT

[3] = Microsomal stability, human liver microsomes; format: in vitro ADME; parameters: half-life / microsomal CLint: dose or concentration left out as unconfirmed; details: for half-life: human, liver microsomes, pH 7.4, human liver microsomes, read-out: t1/2 (min) (Mean ± S.D.); for CLint scaled: read-out: CLint (ml/min/kg) (Mean ± S.D.)
Method: as §1, §2, §3

[4] = Microsomal stability, mouse liver microsomes; format: in vitro ADME; parameters: microsomal CLint / half-life: dose or concentration left out as unconfirmed; details: for half-life: mouse, liver microsomes, pH 7.4, mouse liver microsomes, read-out: t1/2 (min) (Mean ± S.D.); for CLint scaled: read-out: CLint (ml/min/kg) (Mean ± S.D.)
Method: as §1, §2, §3

[5] = Metabolite profile after incubation with pooled mouse liver microsomes (LC-UV/LC-MS); format: in vitro ADME; details: NADPH, 37°C, 60 min
Method: as §1
Reconstituted extracts from the microsomal incubations were injected on a Supelco Discovery column C18, 250 × 4.6 mm column (Millipore-Sigma, St Louis, MO) on Thermo Accela HPLC system (Thermo Fisher Scientific, Austin, TX). The column temperature was maintained at 35°C, the flow rate was 0.8 ml/min, the injection volume was 20 µl and UV detector was set at 300 nm, maximal absorbance wavelength for AM9338. […]
The metabolites M3 (trihydroxy), M4 (trihydroxy) and M8 (Ketone-hydroxyl) appear to be the metabolic end products of AM9338. […] The estimated relative percentage of each metabolite was calculated using the UV peak areas at the end of the incubation: M1 (49%), M2 (37%), M3 (1%), M4 (5%), M5 (4%), M7 (3%), M8 (1%), and M9 (2%). […] Human (HLM), Mouse (MLM) and rat liver microsomes (RLM) generated the very similar metabolite profile, with M1 and M2 being the major metabolic products, appearing in similar order of formation and relative quantities. […]

[6] = mouse, iv, I.V. 2 mg/kg, plasma
[7] = mouse, plasma, po, 8 mg/kg, oral 8 mg/kg

For `O=C(NC12CC3CC(CC(C3)C1)C2)c1nn(CCCn2ccnn2)c2ccccc12` [AM9338, 1-(3-(1H-1,2,3-triazol-1-yl)propyl)-N-(adamantan-1-yl)-1H-indazole-3-carboxamide], the microsomal CLint ([1]; pH 7.4, rat liver microsomes, presence of NADPH, read-out: CLint (µl/min/mg) (Mean ± S.D.)) was 830 ± 136 µL/min/mg, the “Stability in absence of NADPH” value ([1]; rat microsomes, 37°C, no NADPH, tested up to 2 h) was “stable” and the Ki (hCB2) was 3 nM. The “Systemic plasma clearance as share of hepatic blood flow” value ([2]; I.V. 2 mg/kg) was 85 % of hepatic blood flow, the t1/2 ([2]; I.V. 2 mg/kg, terminal half-life, 2 mg/kg) was 16.1 min and the AUC [2, 6] was 438 ng·h/mL. The C0 [2, 6] was 2110 ng/mL, the clearance [2, 6] was 75.9 mL/min/kg and the AUC ([2]; mouse, oral 8 mg/kg, plasma) was 267 ng·h/mL. The half-life ([2]; mouse, plasma, iv, 2 mg/kg, I.V. 2 mg/kg, terminal half-life) was 16 min, the Vd ([2]; mouse, plasma, iv, I.V. 2 mg/kg, read-out: Vd) was 1.76 L/kg and the Tmax ([2]; mouse, plasma, oral 8 mg/kg) was 60 min. It also gave a bioavailability ([2]; mouse, plasma, oral, 8 mg/kg, read-out: Bioavailability) of roughly 15%, a Cmax [2, 7] of 240 ng/mL and a half-life [2, 7] of 113 min. It also gave a CL ([2]; oral 8 mg/kg) of 489 mL/min/kg, a Vd ([2]; oral 8 mg/kg) of 79.9 L/kg and a bioavailability [2] of 15.5%. For the same molecule, the “Cmax (Oral)” value ([2]; oral 8 mg/kg, plasma, 8 mg/kg) was 239 ± 230 ng/mL, the “Major CYP isoform responsible for the adamantyl oxidations” value (CYP3A4) was “CYP3A4” and the Ki (mCB2) was 2.3 nM. The “t1/2 (min) (Mean ± S.D.)” value ([3]; human liver microsomes, 37°C, presence of NADPH) was 3.3 ± 0.6 min, the “Stability in absence of NADPH” value ([3]; human microsomes, 37°C, no NADPH, tested up to 2 h) was “stable” and the half-life ([3]; 37°C, presence of NADPH) was less than 4 min. For the same molecule, the microsomal CLint ([3]; pH 7.4, human liver microsomes, presence of NADPH, read-out: CLint (µl/min/mg) (Mean ± S.D.)) was 420 ± 93 µL/min/mg, the “Stability in absence of NADPH” value ([4]; mouse microsomes, 37°C, no NADPH, tested up to 2 h) was “stable” and the microsomal CLint ([4]; pH 7.4, mouse liver microsomes, presence of NADPH, read-out: CLint (µl/min/mg) (Mean ± S.D.)) was 2950 ± 282 µL/min/mg. For the same molecule, the “Extent of metabolism of parent” value [5] was “almost completely metabolized”.
In the case of `O=C(NC12CC3CC(C1)C(O)C(C3)C2)c1nn(CCCn2ccnn2)c2ccccc12` (stereo not shown) [M1], the CLint scaled ([1]; pH 7.4, rat liver microsomes) is reported as 565 ± 4.4 mL/min/kg, the half-life ([1]; 37°C, presence of NADPH) is reported as 4.41 ± 0.31 min and the half-life ([3]; 37°C, presence of NADPH) is reported as 13.1 ± 2.48 min. For the same molecule, the CLint scaled ([3]; pH 7.4, human liver microsomes) was 121 ± 20 mL/min/kg, the half-life ([4]; 37°C, presence of NADPH) was 2.02 ± 0.11 min and the CLint scaled ([4]; pH 7.4, mouse liver microsomes) was 2730 ± 223 mL/min/kg.
`O=C(NC12CC3CC(C1)C(O)C(C2)C3O)c1nn(CCCn2ccnn2)c2ccccc12` (stereo not shown) [M2] gave a CLint scaled ([1]; pH 7.4, rat liver microsomes) of 93 ± 10 mL/min/kg, a half-life ([1]; 37°C, presence of NADPH) of 26.8 ± 6.6 min and a half-life ([3]; 37°C, presence of NADPH) of 30.8 ± 6.7 min. The CLint scaled ([3]; pH 7.4, human liver microsomes) was 54 ± 4 mL/min/kg, the half-life ([4]; 37°C, presence of NADPH) was 10.5 ± 0.64 min and the CLint scaled ([4]; pH 7.4, mouse liver microsomes) was 520 ± 54 mL/min/kg.
